According to PMC4700456, “Receptor for detection of a Type II sex pheromone in the winter moth Operophtera brumata” (Scientific Reports, 2016):

Target: T1, ObruOR1 (co-expressed with Obru\Orco) (Operophtera brumata, UniProt A0A140YWR3)
T1 construct: full-length, ObruOR1 430 aa, Obru\Orco 472 aa; pCS2+ vector, cRNAs co-injected in Xenopus laevis oocytes; with Odorant receptor co-receptor
T1 sequence (A0A140YWR3 1-430): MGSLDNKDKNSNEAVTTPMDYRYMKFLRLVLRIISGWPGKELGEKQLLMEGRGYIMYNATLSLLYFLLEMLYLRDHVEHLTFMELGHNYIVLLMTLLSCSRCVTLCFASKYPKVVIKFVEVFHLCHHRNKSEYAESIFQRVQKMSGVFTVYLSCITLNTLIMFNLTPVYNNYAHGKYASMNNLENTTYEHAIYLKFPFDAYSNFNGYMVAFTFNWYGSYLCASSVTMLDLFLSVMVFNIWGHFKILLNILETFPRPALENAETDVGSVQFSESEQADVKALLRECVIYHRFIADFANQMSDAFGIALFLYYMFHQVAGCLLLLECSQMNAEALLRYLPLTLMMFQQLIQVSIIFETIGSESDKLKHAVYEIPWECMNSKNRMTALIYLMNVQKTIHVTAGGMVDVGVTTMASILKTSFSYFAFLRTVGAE
T1 sequence (A0A140YWR4 1-472 partner): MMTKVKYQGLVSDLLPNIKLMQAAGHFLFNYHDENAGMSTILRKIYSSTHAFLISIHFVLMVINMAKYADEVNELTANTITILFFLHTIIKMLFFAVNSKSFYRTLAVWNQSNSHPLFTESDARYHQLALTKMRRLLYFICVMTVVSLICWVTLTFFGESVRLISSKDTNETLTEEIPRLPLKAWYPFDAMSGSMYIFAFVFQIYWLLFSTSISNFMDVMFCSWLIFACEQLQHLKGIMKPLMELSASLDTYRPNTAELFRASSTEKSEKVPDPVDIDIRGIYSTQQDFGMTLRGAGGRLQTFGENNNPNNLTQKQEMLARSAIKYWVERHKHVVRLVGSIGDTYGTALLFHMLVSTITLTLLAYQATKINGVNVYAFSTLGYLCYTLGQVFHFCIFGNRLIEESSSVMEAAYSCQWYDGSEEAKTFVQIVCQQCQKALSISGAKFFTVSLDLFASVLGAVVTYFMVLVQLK
Assay: two-electrode voltage clamp, Xenopus oocytes
Format: cell-based
Settings: agonist, holding potential -80 mV, Ringer's buffer, dose-response

**Q.** How did the threshold dose turn out when C=C/C=C\C/C=C\C/C=C\CCCCCCCCC [1,3Z,6Z,9Z-19:H, (3Z,6Z,9Z)-1,3,6,9-nonadecatetraene] was run?
**A.** 10 nM
